Results: patent US9975897B2, “Pyrazolopyrimidine derivatives useful as inhibitors of Bruton's tyrosine kinase” (Loxo Oncology, Inc., priority 2014, dated 2018)

Key:
TMD8 human DLBCL cells = assay: TMD8 growth assay; assay type: cell-based; details: 72 hours, Resazurin, Table 3 categories
Experimental: Compounds were assayed for effects on the growth of TMD8 human DLBCL cells that are dependent on NFκB signalling. TMD8 cells were grown in suspension in T225 flasks, centrifuged and re-suspended in 2.5% FBS containing media. Cells were then plated at 1.0×10^4 cells per well in 96-well plates in varying concentrations of compound and incubated for 72 hours at 37° C. An additional plate of cells to be used as the Day 0 read was seeded without compound addition, Resazurin was added to each well, incubated for 5 h and the fluorescence measured at 590 nm. After 72 h of compound treatment, Resazurin was added to each well of the compound treated plates, incubated for 5 hours and the fluorescence measured at 590 nm. The IC50 was then calculated but subtracting the average Day 0 value from each well value from the treated plates, each treatment was then calculated as a percentage of the DMSO control and the percentages plotted against the inhibitor concentration to estimate the IC50 from log [Inhibitor] vs response using the Variable Slope model in Graphpad prism from Graphpad software (San Diego, Calif.).

Recombinant BTK kinase = target: T1, Recombinant BTK kinase (Homo sapiens, UniProt Q06187); assay: BTK binding affinity (TR-FRET)
T1 construct: purchased Invitrogen
Experimental: BTK binding affinity of each compound tested was determined using a time-resolved fluorescence resonance energy transfer (TR-FRET) methodology. 2.5 nM Recombinant BTK kinase, varying concentrations of inhibitor, 2 nM LanthaScreen™ Eu anti-His Antibody and 15 nM Kinase Tracer 236 was incubated in 1× LanthaScreen™ Kinase Buffer A for five hours. Recombinant BTK kinase and all LanthaScreen™ components were purchased from Invitrogen. Measurements were performed in a reaction volume of 30 μL using half-area 96-well assay plates. The TR-FRET signal was read on a plate reader with an excitation wavelength of 340 nm and detection wavelengths of 615 and 665 nm. Binding affinity was determined for each compound by measuring TR-FRET signal at various concentrations of compound and plotting the relative fluorescence units against the inhibitor concentration to estimate the IC50 from log [Inhibitor] vs response using the Variable Slope model in Graphpad prism from Graphpad software (SanDiego, Calif.).

Recombinant EGFR = target: T2, Recombinant EGFR (Homo sapiens, UniProt P00533); assay: EGFR binding affinity (TR-FRET); details: 2.5 nM recombinant EGFR, five hours incubation, Table 3 categories
T2 construct: purchased Invitrogen
Experimental: EGFR binding affinity was determined using a time-resolved fluorescence resonance energy transfer (TR-FRET) methodology. 2.5 nM Recombinant EGFR, varying concentrations of inhibitor, 2 nM LanthaScreen™ Eu anti-GST Antibody and 3 nM Kinase Tracer 199 was incubated in 1× LanthaScreen™ Kinase Buffer A for five hours. Recombinant EGFR and all LanthaScreen™ components were purchased from Invitrogen. Measurements were performed in a reaction volume of 30 μL using half-area 96-well assay plates. The TR-FRET signal was read on a plate reader with an excitation wavelength of 340 nm and detection wavelengths of 615 and 665 nm. Binding affinity was determined for each compound by measuring TR-FRET signal at various concentrations of compound and plotting the relative fluorescence units against the inhibitor concentration to estimate the IC50 from log [Inhibitor] vs response using the Variable Slope model in Graphpad prism from Graphpad software (SanDiego, Calif.).

[1] = rat; cited from earlier work
[2] = 2.5 nM recombinant BTK, five hours incubation, Table 3 categories

T1 sequence (Q06187 whole entry): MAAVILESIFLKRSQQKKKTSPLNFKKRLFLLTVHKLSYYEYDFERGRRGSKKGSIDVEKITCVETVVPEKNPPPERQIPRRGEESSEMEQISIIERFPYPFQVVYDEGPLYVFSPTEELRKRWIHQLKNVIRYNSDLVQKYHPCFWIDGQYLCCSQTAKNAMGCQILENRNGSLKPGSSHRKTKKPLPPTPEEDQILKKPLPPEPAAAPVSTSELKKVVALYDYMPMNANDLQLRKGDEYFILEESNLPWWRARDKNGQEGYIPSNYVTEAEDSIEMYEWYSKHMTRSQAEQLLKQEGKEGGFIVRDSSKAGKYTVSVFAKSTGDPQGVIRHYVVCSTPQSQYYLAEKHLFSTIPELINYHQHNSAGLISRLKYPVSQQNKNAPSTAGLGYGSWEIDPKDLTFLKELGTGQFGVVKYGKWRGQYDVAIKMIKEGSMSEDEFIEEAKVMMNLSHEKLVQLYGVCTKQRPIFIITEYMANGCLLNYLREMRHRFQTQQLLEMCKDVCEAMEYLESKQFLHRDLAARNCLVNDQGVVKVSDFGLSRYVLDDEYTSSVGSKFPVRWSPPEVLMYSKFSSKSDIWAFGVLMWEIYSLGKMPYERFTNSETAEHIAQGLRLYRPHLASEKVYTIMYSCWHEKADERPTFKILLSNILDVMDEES
T2 sequence (P00533 25-1210): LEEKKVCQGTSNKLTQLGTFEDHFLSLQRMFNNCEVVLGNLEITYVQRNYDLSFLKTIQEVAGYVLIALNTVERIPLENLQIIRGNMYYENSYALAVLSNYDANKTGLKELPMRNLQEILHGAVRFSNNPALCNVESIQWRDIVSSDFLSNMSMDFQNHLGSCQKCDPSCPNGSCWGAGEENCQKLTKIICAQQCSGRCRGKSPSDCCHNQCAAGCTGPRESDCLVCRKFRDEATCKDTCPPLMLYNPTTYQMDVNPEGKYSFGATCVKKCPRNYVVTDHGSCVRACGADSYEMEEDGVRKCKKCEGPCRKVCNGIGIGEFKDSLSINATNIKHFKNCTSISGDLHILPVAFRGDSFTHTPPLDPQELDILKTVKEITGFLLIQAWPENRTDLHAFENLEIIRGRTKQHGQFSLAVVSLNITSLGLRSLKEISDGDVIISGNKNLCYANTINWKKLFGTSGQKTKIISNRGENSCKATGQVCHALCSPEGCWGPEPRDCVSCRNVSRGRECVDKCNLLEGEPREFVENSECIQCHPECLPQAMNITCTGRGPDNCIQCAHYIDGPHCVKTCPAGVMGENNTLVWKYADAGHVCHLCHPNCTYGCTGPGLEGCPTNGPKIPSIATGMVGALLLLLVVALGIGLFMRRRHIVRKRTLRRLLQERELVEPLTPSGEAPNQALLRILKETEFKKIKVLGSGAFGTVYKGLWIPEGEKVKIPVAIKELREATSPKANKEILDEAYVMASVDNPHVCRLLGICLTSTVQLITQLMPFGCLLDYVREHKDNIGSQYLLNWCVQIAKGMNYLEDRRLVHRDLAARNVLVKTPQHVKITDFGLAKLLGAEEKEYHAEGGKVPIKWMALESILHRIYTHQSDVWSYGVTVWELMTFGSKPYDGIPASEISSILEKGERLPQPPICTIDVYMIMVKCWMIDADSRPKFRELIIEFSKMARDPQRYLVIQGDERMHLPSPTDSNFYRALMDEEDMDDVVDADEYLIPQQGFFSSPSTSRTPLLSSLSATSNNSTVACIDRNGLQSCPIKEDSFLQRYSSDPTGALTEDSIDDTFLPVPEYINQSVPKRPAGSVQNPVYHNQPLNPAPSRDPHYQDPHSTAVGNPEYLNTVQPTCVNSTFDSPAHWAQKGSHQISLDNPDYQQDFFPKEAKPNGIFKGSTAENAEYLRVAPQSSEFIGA

Row | IC50 (Recombinant BTK kinase; [2]) [nM] | IC50 (Recombinant BTK kinase; Table 4 numeric values) [nM] | IC50 (Recombinant EGFR) [nM] | SMILES | IC50 (TMD8 human DLBCL cells) [nM] | bioavailability [1] | estimated fraction absorbed [1]
1 | 0.5 to 1 | 0.7 | 25 to 80 | C=CC(=O)N1CCC[C@@H](n2nc(-c3ccc(CNC(=O)c4ccc(C)cc4OC)cc3)c3c(N)ncnc32)C1 [ID No. 15, N-[[4-[4-amino-1-[(3R)-1-prop-2-enoyl-3-piperidyl]pyrazolo[3,4-d]pyrimidin-3-yl]phenyl]methyl]-2-methoxy-4-methyl-benzamide] | < 5 |  | 
2 | 1 to 10 |  | < 25 | C=CC(=O)N1CCC[C@@H](n2nc(-c3ccc(CNC(=O)c4ccc(C(F)(F)F)cc4F)cc3)c3c(N)ncnc32)C1 [ID No. 36, N-[[4-[4-amino-1-[(3R)-1-prop-2-enoyl-3-piperidyl]pyrazolo[3,4-d]pyrimidin-3-yl]phenyl]methyl]-2-fluoro-4-(trifluoromethyl)benzamide] | 25 to 300 |  | 
3 |  |  |  | C=CC(=O)N1CCC[C@@H](n2nc(-c3ccc(Oc4ccccc4)cc3)c3c(N)ncnc32)C1 [Ibrutinib] |  | poor | low
